From patent US20250360160A1, “NEW MEDICAL USE OF TAFOXIPARIN” (DILAFOR AB, priority 2022, published 2025)

System: factor IIa
Experiment: antifactor IIa activity
Assay type: biochemical
Settings: definition of tafoxiparin

Sequence of factor IIa (P01008 33-464): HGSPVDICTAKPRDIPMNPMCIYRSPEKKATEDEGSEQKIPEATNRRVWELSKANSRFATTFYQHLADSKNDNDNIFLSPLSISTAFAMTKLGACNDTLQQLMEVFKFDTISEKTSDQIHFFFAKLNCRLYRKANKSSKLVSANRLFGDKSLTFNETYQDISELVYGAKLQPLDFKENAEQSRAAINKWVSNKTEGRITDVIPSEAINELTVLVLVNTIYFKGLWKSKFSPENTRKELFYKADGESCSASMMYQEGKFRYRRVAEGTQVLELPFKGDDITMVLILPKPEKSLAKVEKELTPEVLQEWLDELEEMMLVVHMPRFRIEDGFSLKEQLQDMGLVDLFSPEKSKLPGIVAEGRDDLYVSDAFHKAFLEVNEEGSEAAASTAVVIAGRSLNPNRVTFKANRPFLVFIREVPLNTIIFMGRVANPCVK

tafoxiparin
antifactor IIa activity: less than 10 IU/mg
